Results reported in patent US7872133B2, “Tricyclic heterocycle compound” (Ono Pharmaceutical Co., Ltd., priority 2003, dated 2011).

Columns and labels:
[1] = test system: male Wistar rats; test: Evaluation of Anti-Stress Effects (psychological stress, number of defecation); assay type: in vivo, rat; conditions: 10 mg/kg orally 30 minutes before stressor; counted 1 hour later; media treated group average 8.0 feces
Protocol: Psychological stress was loaded to male Wistar rats (Brain Research, 641, 21-28, 1994). Water was stored up to the depth of about 10 cm in a container where the platform was set at the center. A stressor began to load to rats 30 minutes after the vehicle or the compound in the present invention (the compound of Example 17) were orally administered by dosage of 10 mg/kg. The number of defecation was counted 1 hour later (10 per each group). Rats without administration and load of stressor rarely defecated for 1 hour. In contrast, remarkable defecation was admitted in media treated group (average 8.0 feces) loaded by stressor. […] The results clarified that the compounds in the present invention had anti-stress effects.

[2] = molecular target: T1, MBR (Rattus norvegicus, UniProt P16257); test: Receptor Binding Experiment (competition with [3H]PK11195); conditions: rat brain membrane preparation, [3H]PK11195 as MBR selective ligand; Ki by Cheng and Prusoff formula
T1 construct: from tissue; host or cells: whole brain without cerebellum of male Wistar rats, crude membrane preparation
Protocol: The affinity of the compounds in the present invention to MBR was determined using rat brain membrane preparation. In addition, the measurement in the present invention was improved the accuracy of measurement and the sensitivity of measurement for evaluating the compounds in the present invention as follows. After male Wister rats were decapitated to extirpate the whole brain and cerebellums were removed. They were homogenized in ice-cold 50 mmol/L Tris-HCL buffer solution (pH7.4), centrifuged and the obtained pellets were washed. The pellets resuspended and adjusted to about 1 mg/mL were used as rat brain membrane preparations for binding assay. The binding assay were experimented using [^3H]PK11195 as a MBR selective ligand. […]
To determine the amount of total binding in saturation binding experiment, membrane preparations, various concentrations of [^3H]PK11195, final concentration: 0.5 vol % dimethylsulfoxide (DMSO) and 50 mmol/L Tris-HCL buffer solution (pH7.4) were mixed (total volume 200 μL) and were incubated for 1 hour at room temperature. […] The filter was dried and then the radioactivity on the filter was measured by liquid scintillation counter. The data obtained by the binding experiments were Scatchard-analyzed using analysis software, KELL (Ver. 6, BIOSOFT) and the dissociation constant (KD value) was determined. […]

Q: Which “number of defecation (average)” value [1] does the source give for `CC(=O)N1CC2(CC2)c2c([nH]c3ccccc23)C1c1cccc(F)c1` (stereo not drawn) [Example 17, 2-acetyl-1-(3-fluorophenyl)-1,2,3,9-tetrahydrospiro[β-carboline-4,1′-cyclopropane]] here?
A: 5.4 feces

Q: And the Ki [2]?
A: 21 nM
